One test deals with PI3K-gamma (Homo sapiens, UniProt P48736). Kind of test: PI3K inhibition assay (33P-ATP, PI(4,5)P2 substrate), PI3K-gamma. Note: 2 nM enzyme. The format is biochemical. As to the method: One test well also contained 1.5 μL of DMSO with no compound. […] Using a Titertek Multidrop, 50 μL of Reaction Mix [100 mM HEPES pH 7.5, 50 mM NaCl, 10 mM DTT, 0.2 mg/mL BSA, 60 μM phosphatidylinositol(4,5)bisphosphate diC16 (PI(4,5)P2; Avanti Polar Lipids, Cat. No. 840046P) and PI3K isoform of interest (see Table 3 for isoform concentrations)] was added to each well. To initiate the reaction, 50 μL of ATP Mix [20 mM MgCl2, 6 μM ATP (100 μCi/μmole ^33P-ATP)] was added each well, followed by incubating the wells for 30 min. at 25° C. Final concentrations in each well were 50 mM HEPES 7.5, 10 mM MgCl2, 25 mM NaCl, 5 mM DTT, 0.1 mg/mL BSA, 30 μM PI(4,5)P2, 3 μM ATP, and the PI3K isoform of interest (see Table 2). Final compound concentrations in each well ranged from 10 μM to 1 nM.
After incubation, the reactions in each well were quenched by addition of 50 μL of stop solution [30% TCA/Water, 10 mM ATP]. […] 50 μL of scintillation fluid was added to each well and the plate read on a Perkin-Elmer TopCount™ NXT liquid scintillation counter to obtain ^33P-counts representing inhibition values.
The value for the background well was subtracted from the value obtained for each test well and the data were fit to the competitive tight binding Ki equation described by Morrison and Stone, Comments Mol. Cell Biophys.

The next test deals with activated microglia. Kind of test: Microglia activation assay (LPS-treated mice, Iba1 IHC of brain). It counts as in vivo. To be noted: 10 mg/kg b.i.d. oral, LPS 0.5 mg/kg i.p., female C57Bl/6J mice.

PI3K-gamma, sequence (P48736 whole entry, species assumed, canonical isoform): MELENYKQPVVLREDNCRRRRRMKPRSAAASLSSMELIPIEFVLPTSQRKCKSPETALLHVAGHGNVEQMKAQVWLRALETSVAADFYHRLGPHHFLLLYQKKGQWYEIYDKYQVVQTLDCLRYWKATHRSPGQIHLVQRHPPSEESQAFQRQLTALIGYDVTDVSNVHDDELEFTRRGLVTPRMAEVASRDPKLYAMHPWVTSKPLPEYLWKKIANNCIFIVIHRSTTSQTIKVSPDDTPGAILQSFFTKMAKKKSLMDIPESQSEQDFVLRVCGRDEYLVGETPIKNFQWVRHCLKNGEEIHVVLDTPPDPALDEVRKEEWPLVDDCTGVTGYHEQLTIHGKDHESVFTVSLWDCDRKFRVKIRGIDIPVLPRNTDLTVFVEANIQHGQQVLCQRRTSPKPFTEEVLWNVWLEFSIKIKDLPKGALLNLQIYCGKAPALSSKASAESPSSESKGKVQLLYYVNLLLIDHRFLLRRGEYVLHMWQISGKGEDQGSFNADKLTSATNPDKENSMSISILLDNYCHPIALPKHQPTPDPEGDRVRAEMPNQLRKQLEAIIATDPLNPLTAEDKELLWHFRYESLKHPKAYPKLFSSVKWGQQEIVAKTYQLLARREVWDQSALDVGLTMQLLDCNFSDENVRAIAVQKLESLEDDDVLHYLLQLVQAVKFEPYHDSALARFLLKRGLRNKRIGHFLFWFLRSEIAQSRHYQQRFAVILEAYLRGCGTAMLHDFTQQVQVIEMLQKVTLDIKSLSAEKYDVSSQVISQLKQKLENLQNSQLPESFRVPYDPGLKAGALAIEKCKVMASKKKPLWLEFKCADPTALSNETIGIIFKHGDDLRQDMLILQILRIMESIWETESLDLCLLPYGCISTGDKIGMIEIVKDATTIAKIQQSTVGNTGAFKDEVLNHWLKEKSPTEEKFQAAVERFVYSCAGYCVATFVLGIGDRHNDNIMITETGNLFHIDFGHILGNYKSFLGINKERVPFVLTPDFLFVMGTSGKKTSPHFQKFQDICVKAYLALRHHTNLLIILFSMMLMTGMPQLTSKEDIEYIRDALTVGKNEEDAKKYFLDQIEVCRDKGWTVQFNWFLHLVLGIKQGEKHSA
Protocol for activated microglia: Female C57Bl/6J mice (7 weeks old) were purchased from Jackson Laboratory (Maine, US). Animals were acclimated for a week at standard laboratory conditions (12 hrs light cycles) with free access to rodent chow and water. All procedures were in accordance with the National Institute of Health Guidelines for the care and Use of Laboratory Animals and were approved by IACUCC. The endotoxin Lipopolysaccharide (LPS) (E. coli 011:B4, cat #437627) was purchased from Calbiochem. LPS was dissolved in PBS buffer at a concentration of 0.05 mg/ml and stored in frozen aliquots. At the start of the study, mice received an intraperitoneal (i.p.) injection of LPS (0.5 mg/kg) for three consecutive days. Therapeutic treatment with VRT compounds was started together with the 2nd LPS administration and maintained throughout the study. Compound was dosed twice a day orally by gavage for a total of 4 doses. 24 h following the last LPS injection, and 2 hrs following the last VRT dose, animals were sacrificed by CO2 asphyxiation. […]
Digital images were captured using the Aperio ScanScope Slide Scanner (Aperio Technologies, Vista, Calif.). Images were captured at 20× optical magnification, and analyzed using the software Definiens Developer XD. […] Compound efficacy was calculated as percent decrease in number of activated microglia relative to vehicle control.

By Ki is commonly meant the dissociation constant of the complex between target and ligand, obtained from inhibition or displacement. Read a high Ki as weaker binding. For `COc1cc(-c2ccc3c(n2)[C@@H](N2CCOCC2)N(c2cnn(CC(F)(F)F)c2)C3=O)cnc1OC` [Compound 665], the Ki at PI3K-gamma is 0.5 to 2.5 µM.
Still for that read-out and setting: the same measure for `COc1cc(-c2ccc3c(n2)C(N2CCCN(C)CC2)N(c2cnn(CC(F)(F)F)c2)C3=O)cnc1OC` (centres unmarked) [Compound 663]: 0.5 to 2.5 µM.
`Cc1cc(-c2cncc(OC(F)F)c2)nc2c1C(=O)N(c1cnn(CC(F)(F)F)c1)C2` [Compound 271]: in the test with activated microglia, the “percent decrease in number of activated microglia relative to vehicle control” value is reported as 39%.
Turning to `CO/N=C/c1cncc(-c2cc(C)c3c(n2)C(C)(C)N(c2cnn(CC(F)(F)F)c2)C3=O)c1` [Compound 883], the Ki at PI3K-gamma was under 0.1 µM.
The compound `COc1cc(-c2ccc3c(c2)CN(c2cn[nH]c2)C3=O)cnc1OC` [Compound 13] gave a Ki at PI3K-gamma of 0.1 to 0.49 µM.
The same measure, in the same setting: the same measure for `Cc1cc(-c2cncc(OCC(F)F)c2)nc2c1C(=O)N(c1ccn(C3CCOC3)n1)C2` (single isomer, unassigned) [Compound 863]: under 0.1 µM.
Regarding `Cc1cc(-c2cncc([S@@+](C)[O-])c2)nc2c1C(=O)N(c1cnn(CC(F)(F)F)c1)C2(C)C` [Compound 968], the Ki on PI3K-gamma was under 0.1 µM.
Compound `COc1cncc(-c2cc(C)c3c(n2)C(OC)N(c2cc[nH]n2)C3=O)c1` (centres unmarked) [Compound 759] registered a Ki at PI3K-gamma of 0.5 to 2.5 µM.
The same measure, in the same setting: the same measure for `Cc1cc(-c2cncc([S@+](C)[O-])c2)nc2c1C(=O)N(c1cnn(CC(F)(F)F)c1)C2(C)C` [Compound 967]: under 0.1 µM; for `Cc1cc(-c2cncc(S(=O)(=O)N(C)C)c2)nc2c1C(=O)N(c1ccn(C3CCOC3)n1)C2` (single isomer, unassigned) [Compound 954]: under 0.1 µM; for `Cc1cc(-c2cnc(C)c(OCC(F)F)c2)nc2c1C(=O)N(c1ccn(C3CCOC3)n1)C2` (single isomer, unassigned) [Compound 864]: under 0.1 µM.
With `COc1cncc(-c2cc(C)c3c(n2)C(C)(C)N(c2ccn(C[C@H](C)O)n2)C3=O)c1` [Compound 872], the inhibitory constant (Ki) at PI3K-gamma lay in the range of 0.1 to 0.49 µM.
The same measure, in the same setting: to `N#CCn1cc(N2Cc3cc(-c4cncc(S(N)(=O)=O)c4)ccc3C2=O)cn1` [Compound 76] belongs 0.1 to 0.49 µM.
On PI3K-gamma, `COc1cc(-c2ccc3c(n2)CN(c2ccc(N(C)CCN(C)C)nc2)C3=O)cnc1OC` [Compound 195] showed a Ki of 0.5 to 2.5 µM.
